Results published in patent publication US20220202739A1, “ENDOCANNABINOID MIMETIC AND ANTI-INFLAMMATORY COMPOUND CONTAINING COMPOSITIONS, METHODS OF PREPARATION AND USES THEREOF” (priority 2019, published 2022).

Experiments:
Type in all cases: cell-based
CNR1 = assay: Gene expression custom microarray, human skin fibroblasts (Example 1): CNR1
Excerpt: (§1) Cell cultures: A human skin fibroblast cell culture (or cultures) was obtained through the Coriell Cell Repository from the National Institute on Aging Cell Repository (Camden, N.J.), or Promocell GmbH (Heidelberg, Germany). The initial culture was selected from the following cell lines: AG13066, AG11557, AG11796 or GM03651E. The cell lines were derived from donors as follows:
(§2) Experimental phase: When the appropriate quantity of cells had been grown, they were detached as described above, but at the final step were seeded into each well of one or more 6 well dishes. Each well received 2 ml of the cell suspension so they were seeded equally. The dishes were returned to the incubator until 85-95% confluency was reached.
(§3) It is at this stage that all wells were rinsed in PBS after aspirating the growth media. The compound(s) to be tested were previously mixed into a suitable solvent (e.g., DMSO or ethanol) that can be diluted to the desired concentration of test compound (10 μl) in the culture wells without exceeding maximum solvent concentrations and adversely effecting cell viability, and mixed with basal media. NOTE: Standard maximum levels of solvent are 0.1% for DMSO and 0.5% for ETOH. The concentration of each test compound is found in Tables 1 & 2.
(§4) Every 2 wells on the 6 well plate served as a biological replicate for the purposes of RNA isolation and genetic expression evaluations making each 6 well dish an n=3 for the test compound(s) contained in the media. Negative control plates (no test compound(s) and only basal media) were also generated. The plates were returned to the incubator for 24 hrs.
(§5) At the end of the 24 hr time period, the plates were removed from the incubator, the test media aspirated, and the cells rinsed with PBS. RNA isolation is performed using the BioRad Aurum Total RNA Mini Kit (Hercules, Calif.) per manufacturer's protocol; which is described, in brief, below: • Add 350 μl of lysis buffer to each well. Pipet multiple times to ensure thorough lysis. Add lysed cells to the collection tube. • Add 350 μl of 70% ETOH to the collection tube and mix thoroughly. • Pipet the generated lysate onto the spin column placed in a new 2 ml tube. Centrifuge for 30 sec between 8,000 and 10,000 g. • Place the spin column containing the now bound RNA, in a new 2 ml tube. Add 700 μl of low stringency wash solution to the spin column. Centrifuge for 30 sec between 8,000 and 10,000 g. Discard the flow through and replace spin column. • Add 80 μl of DNase I dilution to the spin column and incubate at room temperature for 15 minutes. • Add 700 μl of high stringency wash solution to the column and centrifuge for 30 sec between 8,000 and 10,000 g. Discard flow through. • Add 700 μl of low stringency wash solution to the column and centrifuge for 60 sec between 8,000 and 10,000 g. Discard flow through. • Centrifuge for 2 minutes to remove residual wash solution. • Transfer spin column to new 1.5 ml collection tube and add 80 μl of elution solution to the column. Allow 1 minute for saturation of the membrane and then centrifuge for 2 minutes to complete the RNA elution. • Quantify the quantity of RNA and store at −20 C° until use (no more than 1 month)
(§6) The genes tested were: • Cannabinoid receptor 1 (CB1(CNR1)) • Cannabinoid receptor 2 (CB2 (CNR2)) • Fatty acid amide hydrolase (FAAH) • Monoacylglycerol lipase (MGLL, i.e., MAGL) • Peroxisome proliferator-activated receptor gamma (PPARG) • Nuclear factor kappa-light-chain-enhancer of activated B cells (NFκβ) • Interleukin 1 Alpha (IL1alpha) • Cyclooxygenase 1 (PTGS1, i.e., COX1) • Transient receptor potential cation channel subfamily A member 1 (TRPA1) • Transient receptor potential cation channel subfamily V member 1 (TRPV1) • Transient receptor potential cation channel subfamily M member 8 (TRPM8) • Hemoglobin Subunit Beta (HBB) REFERENCE GENE • Ribosomal Protein L13a (RPL13A) REFERENCE GENE […]

FAAH = assay: Gene expression custom microarray, human skin fibroblasts (Example 1): FAAH
Excerpt: as §1, §2, §3, §4, §5, §6

MAGL = assay: Gene expression custom microarray, human skin fibroblasts (Example 1): MAGL
Excerpt: as §1, §2, §3, §4, §5, §6

NFKB1 = assay: Gene expression custom microarray, human skin fibroblasts (Example 1): NFKB1; conditions: human skin fibroblasts, 10 uM, 24 hr
Excerpt: as §1, §2
as §3, with “ETOH.” for “ETOH. The concentration of each test compound is found in Tables 1 & 2.”
as §4, §5
The genes tested were: • Cannabinoid receptor 1 (CB1(CNR1)) • Cannabinoid receptor 2 (CB2 (CNR2)) • Fatty acid amide hydrolase (FAAH) • Monoacylglycerol lipase (MGLL, i.e., MAGL) • Peroxisome proliferator-activated receptor gamma (PPARG) • Nuclear factor kappa-light-chain-enhancer of activated B cells (NFκβ) • Interleukin 1 Alpha (IL1alpha) • Cyclooxygenase 1 (PTGS1, i.e., COX1) • Transient receptor potential cation channel subfamily A member 1 (TRPA1) • Transient receptor potential cation channel subfamily V member 1 (TRPV1) • Transient receptor potential cation channel subfamily M member 8 (TRPM8) • Hemoglobin Subunit Beta (HBB) REFERENCE GENE • Ribosomal Protein L13a (RPL13A) REFERENCE GENE

PTGS1 = assay: Gene expression custom microarray, human skin fibroblasts (Example 1): PTGS1; conditions: human skin fibroblasts, 10 uM, 24 hr
Excerpt: as §1, §2, §3, §4, §5, §6

[1] = human skin fibroblasts, 10 uM, 24 hr

Row | SMILES | fold induction at 10 µM (CNR1; Homo sapiens, Skin fibroblast, 24 h, read-out: CNR1↑ gene expression, fold increase or decrease vs untreated cells) | fold induction at 10 µM (FAAH; Homo sapiens, Skin fibroblast, 24 h, read-out: FAAH↓ gene expression, fold increase or decrease vs untreated cells) | fold induction at 10 µM (MAGL; Homo sapiens, Skin fibroblast, 24 h, read-out: MAGL↓ gene expression, fold increase or decrease vs untreated cells) | fold induction at 10 µM (NFKB1; Skin fibroblast, read-out: NFKB1↓ gene expression, fold increase or decrease vs untreated cells) | fold induction at 10 µM (PTGS1; Skin fibroblast, read-out: PTGS1↓ gene expression, fold increase or decrease vs untreated cells) | CNR1↑ gene expression, fold increase or decrease vs untreated cells (CNR1; [1]) | FAAH↓ gene expression, fold increase or decrease vs untreated cells (FAAH; [1]) | MAGL↓ gene expression, fold increase or decrease vs untreated cells (MAGL; [1]) | NFKB1↓ gene expression, fold increase or decrease vs untreated cells (NFKB1) | PTGS1↓ gene expression, fold increase or decrease vs untreated cells (PTGS1)
1 | C=C(C)[C@@H]1CCC(C)=C[C@H]1c1c(O)cc(CCCCC)cc1O [CBD, cannabidiol, reference compound] | 1.5 | 2.2 | 1.8 | 2.3 | 4.2 | – | – | – | – | –
2 | CCCCCCCCCCCCCCCC(=O)NCCO [N-palmitoylethanolamide] | – | – | – | – | – | 5.9 fold | −1.1 fold | 2.8 fold | 1.5 fold | 1.1 fold
